Assays:
cells = experiment: Cytotoxicity (general statement); assay type: cell-based
MT2 cells = experiment: Cytotoxic activity against uninfected MT2 cells (XTT assay); assay type: cell-based, human; details: 4 days at 37° C., in DMSO
Description: BBNH and Fe(III)-BBNH complex at various concentrations were examined for cytotoxic activity against uninfected MT2 cells. Aliquots of a solution of the compounds in dimethyl sulfoxide were added to the MT2 cells (2×10^5 cells/ml) in RPMI medium containing 10% fetal bovine serum to provide defined final concentrations of test compound. The cells and test compounds were cultured for 4 days at 37° C., in the presence of 5% CO2 and then cytotoxic effect of the compounds was analyzed by using the standard XTT assay. The CC50 calculated from the results were 10±0.5 μM for BBNH and more than 1000 μM for Fe(III)-BBNH.

[1] = Solubility of Fe(III)BBNH in Pluronic P85 formulations; assay type: physicochemical
Description: Various amounts of Fe(III)BBNH were dissolved in 200 μl dimethyl formamide and aliquots (20 μl each) were mixed with the equal volumes of Pluronic P85 solutions of various concentrations in methanol. The water solution of sodium acetate (10 μl) was added to each sample to the final concentration of the salt of 60 mM. The samples were dried by using a speed-vac centrifuge. Each sample was dissolved in 100 μl of 10% Pluronic P85 solution in water. The samples were intensively agitated during two hours at room temperature using a rotator. After that the samples were centrifuged at 10,000 g for 10 min. The supernatants were separated and then diluted with 10% Pluronic P85 solution in water to fit the range of calibration curve. The aliquots (50 μl each) were transferred to 96-well plate and analyzed. The optical densities were determined at λ400 nm using a microplate reader. Fe(III)BBNH concentrations in the samples were then determined by using the calibration shown in Example 4A. Each concentration of Fe(III)BBNH was analyzed in triplicates. Each concentration of Fe306 was measured in triplicates.

[2] = system: HIV-1 infection of MT2 cells; experiment: Inhibition of HIV-1 infection of uninfected MT2 cells; assay type: cell-based; details: compound in DMSO, 30 min before HIV
Description: BBNH and Fe(III)-BBNH complex at various concentrations were examined for the ability to inhibit HIV-1 infection of uninfected MT2 cells. Aliquots of a solution of the compounds in dimethyl sulfoxide were added to uninfected MT2 cells (2×10^5 cells/ml) in RPMI medium containing 10% fetal bovine serum to provide defined final concentrations of test compound. The cells and test compounds were incubated for 30 minutes at 37° C., then inoculated with a suspension of HIV virions. The cells, test compounds and HIV were incubated for 18 h at 37° C., then the cells were collected by centrifugation, washed, and resuspended in RPMI medium containing 10% fetal bovine serum and containing the same concentration of test compound as initially employed. The cells were then cultured at 37° C. (with culture medium changes as required). HIV infection was assessed by microscopic examination of HIV-induced cytopathicity (syncytium) and/or by analysis of HIV p24 antigen levels in the culture supernatants.

[3] = Solubility in a water medium (general statement); assay type: physicochemical
[4] = biological target: T1, HIV-1 reverse transcriptase (p51/p66 RT), RNAse H activity (Human immunodeficiency virus type 1 group M subtype B, UniProt P03366); experiment: Inhibition of RNAse H activity of RT; assay type: biochemical
T1 construct: 10 ng of p51/p66 heterodimeric RT per assay were used
Description: BBNH and Fe(III)-BBNH complex at various concentrations were examined for the ability to inhibit RNA dependent and DNA dependent DNA polymerase activities as well as RNAse H activity of HIV-1 reverse transcriptase (RT RDDP, RT DDDP, and RT RNAse H, respectively). To analyze RT RDDP and RT DDDP the following reaction mixture (100 μl total volume) was used: 50 mM Tris-HCl (pH 7.8), 60 mM KCl, 10 mM MgCl2, 10 ng of p51/p66 RT, 0.1-0.5 units of template/primer, and 0.5-25 μM [^3 H]dNTP. Aliquots of the test compounds dissolved in DMSO were added to the reaction mixtures, incubated for 10-20 min. at 37° C. and than quenched with 500 μl of cold 20 mM sodium pyrophosphate in 10% dichloroacetic acid. After 10 min. on ice, the samples were filtered on Whatman 934-AH glass fiber filters and washed with 10% dichloroacetic acid and ethanol, and the radioactivity was determined by liquid scintillation analysis. To analyze RT RNAse H the following reaction mixture (50 μl total volume) was used: 5OmM Tris-HCl (pH 8.0), 60 mM KCl, 8 mM MgCl2, and variable amounts of ([^3 H]rG)-poly(dC). Generally, 10 ng of p51/p66 heterodimeric RT per assay were used. Aliquots of the test compounds dissolved in DMSO were added to the reaction mixtures, incubated for 20 min. at 37° C. and than quenched by placing the tubes on ice followed by the addition of 100 μl of cold 7% perchloric acid. After 10 min. on ice, the samples were centrifuged at 12,000 g for 15 min. 100 μl of the supernatants were carefully removed, and the radioactivity was determined by liquid scintillation analysis.

CC(C)(C)c1ccc(C(=O)NN=Cc2c(O)ccc3ccccc23)cc1.C[O-].[Cl-].[Cl-].[Fe+3] [Fe(III)-BBNH]
cytotoxicity (cells): virtually no cytotoxicity | CC50 (MT2 cells): > 1000 µM | Solubility ([1]; 1% P85, 1 mg/ml added, 120 min): 1120 µg/mL | Solubility ([1]; 1% P85, 2 mg/ml added): 2120 µg/mL | Solubility ([1]; 1% P85, 5 mg/ml added): 1400 µg/mL | Solubility ([1]; 1% P85, 10 mg/ml added, 120 min): 1390 µg/mL | Solubility ([1]; 1% P85, 20 mg/ml added, 120 min): 730 µg/mL | Solubility ([1]; 1% P85, 30 mg/ml added, 120 min): 10 µg/mL | Solubility ([1]; 1% P85, 40 mg/ml added, 120 min): 30 µg/mL | Solubility ([1]; 2% P85, 1 mg/ml added, 120 min): 1130 µg/mL | Solubility ([1]; 2% P85, 2 mg/ml added): 2160 µg/mL | Solubility ([1]; 2% P85, 5 mg/ml added): 5020 µg/mL | Solubility ([1]; 2% P85, 10 mg/ml added, 120 min): 3100 µg/mL | Solubility ([1]; 2% P85, 20 mg/ml added, 120 min): 2710 µg/mL | Solubility ([1]; 2% P85, 30 mg/ml added, 120 min): 2390 µg/mL | Solubility ([1]; 2% P85, 40 mg/ml added, 120 min): 420 µg/mL | Solubility ([1]; 3% P85, 1 mg/ml added, 120 min): 1040 µg/mL | Solubility ([1]; 3% P85, 2 mg/ml added): 2240 µg/mL | Solubility ([1]; 3% P85, 5 mg/ml added): 5060 µg/mL | Solubility ([1]; 3% P85, 10 mg/ml added, 120 min): 7420 µg/mL | Solubility ([1]; 3% P85, 20 mg/ml added, 120 min): 5150 µg/mL | Solubility ([1]; 3% P85, 30 mg/ml added, 120 min): 5140 µg/mL | Solubility ([1]; 3% P85, 40 mg/ml added, 120 min): 2960 µg/mL | Solubility ([1]; 5% P85, 1 mg/ml added, 120 min): 1090 µg/mL | Solubility ([1]; 5% P85, 2 mg/ml added): 2080 µg/mL | Solubility ([1]; 5% P85, 5 mg/ml added): 5090 µg/mL | Solubility ([1]; 5% P85, 10 mg/ml added, 120 min): 10510 µg/mL | Solubility ([1]; 5% P85, 20 mg/ml added, 120 min): 10360 µg/mL | Solubility ([1]; 5% P85, 30 mg/ml added, 120 min): 12250 µg/mL | Solubility ([1]; 5% P85, 40 mg/ml added, 120 min): 10480 µg/mL | Solubility ([1]; 10% P85, 1 mg/ml added, 120 min): 1080 µg/mL | Solubility ([1]; 10% P85, 2 mg/ml added): 2060 µg/mL | Solubility ([1]; 10% P85, 5 mg/ml added): 5160 µg/mL | Solubility ([1]; 10% P85, 10 mg/ml added, 120 min): 10710 µg/mL | Solubility ([1]; 10% P85, 20 mg/ml added, 120 min): 19060 µg/mL | Solubility ([1]; 10% P85, 30 mg/ml added, 120 min): 22870 µg/mL | Solubility ([1]; 10% P85, 40 mg/ml added, 120 min): 26240 µg/mL | IC50 [2]: > 50 µM | solubility in a water medium [3]: practically insoluble in a water medium | IC50 ([4]; 10 min. preincubation): 0.5 ± 0.07 µM | Ratio BBNH/Fe(III)-BBNH (IC50), RT RNase H ([4]; 10 min. preincubation): 7 | IC50 ([4]; No preincubation): 0.9 ± 0.5 µM | Ratio BBNH/Fe(III)-BBNH (IC50), RT RNase H ([4]; No preincubation): > 50

Reference: patent US6218438A, “Copolymer compositions for treating viral infections” (Supratek Pharma, Inc., priority 1999, dated 2001)
